This note sets out measurements from patent publication US10399939B2, “Tetrahydronaphthalene estrogen receptor modulators and uses thereof” (Genentech, Inc., priority 2015, dated 2019).

The term EC50 denotes the concentration needed to bring the measured effect to its halfway point. High values mean a less potent agent, low ones a more potent agent.

The assay addresses ER-alpha (WT) (Homo sapiens (Human), UniProt P03372). The assay is described as follows: Breast Cancer Cell ERa High Content Fluorescence Imaging Degradation Assay (ER-alpha MCF7 HCS). To be noted: MCF7 breast cancer cells; for ER-alpha (WT) MCF7 HCS (S inf): plateau of the maximal effect (ERa degradation), DMSO and 5 nM Fulvestrant define 0% and 100% changes in ESR1. It counts as cell-based. The protocol:
Example 901: Breast Cancer Cell ERa High Content Fluorescence Imaging Degradation Assay
MCF7 breast cancer cells were seeded on day 1 at a density of 10,000 cells per well in 384 well poly-lysine coated tissue culture plate (Greiner # T-3101-4), in 50 µL/well RPMI (phenol red free), 10% FBS (Charcoal stripped), containing L-glutamine. […] Compounds and controls were dispensed using a Labcyte Echo acoustic dispenser to dispense compounds with a pre-defined serial dilution (1.8×, 10 point, in duplicate) and appropriate backfill and control compounds (final total volume transferred was 417.5 nL and compound dispense volume ranges from 2.5 nL to 417.5 nL; 0.84% DMSO (v/v) final), ultimately producing a concentration range from 0.05 nM to 835 nM. Cell plates were incubated at 37° C., for 4 hours. Fixation and permeabilization were carried out using a Biotek EL406 plate washer and dispenser as follows. Cells were fixed by addition of 15 μL of 16% paraformaldehyde (Electron Microscopy Sciences #15710-S) directly to the 50 μL cell culture medium in each well using the peristaltic pump 5 μL cassette on a Biotek EL406 (final concentration of formaldehyde was 3.7% w/v). Samples were incubated 30 minutes. Well contents was aspirated and 50 μL/well of Phosphate Buffered Saline (PBS) containing 0.5% w/v bovine serum albumen, 0.5% v/v Triton X-100 (Antibody Dilution Buffer) was added to each well. Samples were incubated for 30 minutes. Well contents were aspirated and washed 3 times with 100 μL/well of PBS. Immunofluorescence staining of estrogen receptor alpha (ESR1) was carried out using a Biotek EL406 plate washer and dispenser as follows. The well supernatant was aspirated from the wells and 25 μL/well of anti-ESR1 mAb (F10) (Santa Cruz sc-8002) diluted 1:1000 in Antibody Dilution Buffer was dispensed. Samples were incubated for 2 hours at room temperature. Samples were washed 4 times with 100 μL/well of PBS. 25 μL (microliters)/well of secondary antibody solution (Alexafluor® 488 conjugate anti-mouse IgG (LifeTechnologies #A21202) diluted 1:1000 and Hoechst 33342 1 μg/ml diluted in Antibody Dilution Buffer) were dispensed into each well. Samples were incubated for 2 hours at room temperature. Samples were washed 3 times with 100 μL/well of PBS using a Biotek EL406. Quantitative fluorescence imaging of ESR1 was carried out using a Cellomics Arrayscan V® (Thermo). Fluorescence images of the samples (Channel 1: XF53 Hoechst (DNA stain); Channel 2: XF53 FITC (ESR1 stain)) were acquired using a Cellomics VTI Arrayscan using the Bioapplication “Compartmental Analysis” using the auto-exposure (based on DMSO control wells) setting “peak target percentile” set to 25% target saturation for both channels. Channel 1 (DNA stain) was used to define the nuclear region (Circ). Measurements of “Mean_CircAvgIntCh2”, which is the Alexafluor 488 fluorescence intensity (ESR1) within the nuclear region, was measured on a per cell basis and averaged over all the measured cells. Data analysis was carried out using Genedata Screener Software, with DMSO and 5 nM Fulvestrant treated samples being used to define the 0% and 100% changes in ESR1. The “Robust Fit” method was used to define the inflexion point of curve (EC50) and the plateau of the maximal effect (Sinf).

The mark [1] stands for this setting: 4 hours incubation, inflexion point of curve.

ER-alpha (WT), sequence (P03372 whole entry): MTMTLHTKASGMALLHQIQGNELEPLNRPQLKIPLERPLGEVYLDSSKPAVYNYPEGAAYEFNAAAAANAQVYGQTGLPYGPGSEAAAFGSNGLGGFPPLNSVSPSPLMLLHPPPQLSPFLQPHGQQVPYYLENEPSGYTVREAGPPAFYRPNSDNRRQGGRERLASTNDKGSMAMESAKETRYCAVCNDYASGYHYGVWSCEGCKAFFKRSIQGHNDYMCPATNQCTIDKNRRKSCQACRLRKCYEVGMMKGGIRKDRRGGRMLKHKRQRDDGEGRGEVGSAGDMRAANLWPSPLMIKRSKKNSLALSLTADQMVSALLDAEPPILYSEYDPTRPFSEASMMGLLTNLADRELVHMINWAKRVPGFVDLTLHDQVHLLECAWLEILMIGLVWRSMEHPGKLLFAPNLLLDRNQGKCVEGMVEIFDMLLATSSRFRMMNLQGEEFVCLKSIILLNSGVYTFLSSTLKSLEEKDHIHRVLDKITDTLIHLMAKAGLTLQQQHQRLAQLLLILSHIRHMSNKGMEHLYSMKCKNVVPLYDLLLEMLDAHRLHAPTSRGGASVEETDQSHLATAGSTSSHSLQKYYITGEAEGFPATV

As for `Oc1ccc2c(c1)CC[C@H](c1ccccc1)[C@@H]2c1ccc(OC2CN(CCCF)C2)cc1` [Compound 130, (5R,6S)-5-(4-((1-(3-fluoropropyl)azetidin-3-yl)oxy)phenyl)-6-phenyl-5,6,7,8-tetrahydronaphthalen-2-ol], the “ER-alpha (WT) MCF7 HCS (S inf)” value is given as −99.3%. Further, under setting [1], the midpoint of the response, the EC50, lay at 107 pM.
For `Oc1ccc2c(c1)CC[C@H](c1ccccc1)[C@@H]2c1ccc(OCCN2CC(CF)C2)cc1F` [Compound 120, (5S,6S)-5-(2-fluoro-4-(2-(3-(fluoromethyl)azetidin-1-yl)ethoxy)phenyl)-6-phenyl-5,6,7,8-tetrahydronaphthalen-2-ol], the “ER-alpha (WT) MCF7 HCS (S inf)” value is reported as −98.8%. Under setting [1], this compound showed an EC50 of 36 pM.
On to `Oc1ccc2c(c1)CC[C@@H](c1ccc(F)cc1)[C@H]2c1ccc(OCCN2CC(CF)C2)cc1` [Compound 103, (1S,2R)-1-[4-[2-[3-(fluoromethyl)azetidin-1-yl]ethoxy]phenyl]-2-(4-fluorophenyl)tetralin-6-ol], for which the “ER-alpha (WT) MCF7 HCS (S inf)” value was −78%. Also, under setting [1], the EC50 was 38600 pM.
Consider `Oc1ccc2c(c1)CC[C@H](C1CCOCC1)[C@@H]2c1ccc(OCCN2CC(CF)C2)cc1` [Compound 107, (5R,6R)-5-(4-(2-(3-(fluoromethyl)azetidin-1-yl)ethoxy)phenyl)-6-(tetrahydro-2H-pyran-4-yl)-5,6,7,8-tetrahydronaphthalen-2-ol], for which the “ER-alpha (WT) MCF7 HCS (S inf)” value is given as −87.8%. Further, the EC50 under setting [1] was 16400 pM.
On to `Oc1ccc2c(c1)CCC1(CCCC1)[C@H]2c1ccc(OCCN2CC(CF)C2)cc1` [Compound 121, (S)-1′-(4-(2-(3-(fluoromethyl)azetidin-1-yl)ethoxy)phenyl)-3′,4′-dihydro-1′H-spiro[cyclopentane-1,2′-naphthalen]-6′-ol], for which the “ER-alpha (WT) MCF7 HCS (S inf)” value was −98.5%. Moreover, the EC50 under setting [1] was 208 pM.
For `Oc1ccc2c(c1)CC[C@H](C1CCC(F)(F)CC1)[C@@H]2c1ccc(OCCN2CC(CF)C2)cc1` [Compound 110, (5R,6R)-6-(4,4-difluorocyclohexyl)-5-(4-(2-(3-(fluoromethyl)azetidin-1-yl)ethoxy)phenyl)-5,6,7,8-tetrahydronaphthalen-2-ol], the “ER-alpha (WT) MCF7 HCS (S inf)” value is listed as −98.2%. Also, under setting [1], the EC50 amounted to 177 pM.
As for `Oc1ccc2c(c1)CC[C@@H](c1ccccc1)[C@H]2c1ccc(OCCN2CC(CF)C2)cc1` [Compound 102, (1S,2R)-1-[4-[2-[3-(fluoromethyl)azetidin-1-yl]ethoxy]phenyl]-2-phenyl-tetralin-6-ol], the “ER-alpha (WT) MCF7 HCS (S inf)” value was −94.7%. Under setting [1], this compound displayed a concentration giving a half-maximal response (EC50) of 8120 pM.
Turning to `C[C@@H](COc1ccc([C@H]2c3ccc(O)cc3CC[C@H]2c2ccccc2)cc1)N1CC[C@@H](CF)C1` [Compound 124, (5S,6R)-5-(4-((S)-2-((R)-3-(fluoromethyl)pyrrolidin-1-yl)propoxy)phenyl)-6-phenyl-5,6,7,8-tetrahydronaphthalen-2-ol], the “ER-alpha (WT) MCF7 HCS (S inf)” value is −93.4%. For the same compound, the EC50 under setting [1] was 37.1 pM.
Turning to `Oc1ccc2c(c1)CC[C@@H](c1ccccc1)[C@H]2c1ccc(OCCN2CC(CF)C2)cc1F` [Compound 119, (5R,6R)-5-(2-fluoro-4-(2-(3-(fluoromethyl)azetidin-1-yl)ethoxy)phenyl)-6-phenyl-5,6,7,8-tetrahydronaphthalen-2-ol], the “ER-alpha (WT) MCF7 HCS (S inf)” value is reported as −85%. This compound also displayed an EC50 under setting [1] of 16500 pM.
Take `Oc1ccc2c(c1)CC[C@@H](c1ccccc1)[C@H]2c1ccc(OCCN2CC(CF)C2)nc1` [Compound 128, (5R,6R)-5-(6-(2-(3-(fluoromethyl)azetidin-1-yl)ethoxy)pyridin-3-yl)-6-phenyl-5,6,7,8-tetrahydronaphthalen-2-ol]: the “ER-alpha (WT) MCF7 HCS (S inf)” value was −84%. The compound further gave an EC50 under setting [1] of 12500 pM.
`Oc1ccc2c(c1)CCC1(CCCC1)[C@@H]2c1ccc(OCCN2CC(CF)C2)cc1` [Compound 122, (R)-1′-(4-(2-(3-(fluoromethyl)azetidin-1-yl)ethoxy)phenyl)-3′,4′-dihydro-1′H-spiro[cyclopentane-1,2′-naphthalen]-6′-ol]: the “ER-alpha (WT) MCF7 HCS (S inf)” value is listed as −99.2%. Further, a half-maximal effect under setting [1] (EC50) was put at 451 pM.
Regarding `Oc1ccc2c(c1)CC[C@@H](c1ccccc1)[C@H]2c1c(F)cc(OCCN2CC(CF)C2)cc1F` [Compound 104, (1R,2R)-1-[2,6-difluoro-4-[2-[3-(fluoromethyl)azetidin-1-yl]ethoxy]phenyl]-2-phenyl-tetralin-6-ol], the “ER-alpha (WT) MCF7 HCS (S inf)” value is −95%. The same compound showed an EC50 under setting [1] of 15600 pM.
As to `Oc1ccc2c(c1)CC[C@H](c1ccccc1)[C@@H]2c1ccc(OCCN2CCCC2)cc1` [lasofoxifene, (5R,6S)-6-phenyl-5-(4-(2-(pyrrolidin-1-yl)ethoxy)phenyl)-5,6,7,8-tetrahydronaphthalen-2-ol, reference compound], the “ER-alpha (WT) MCF7 HCS (S inf)” value is on record as −73.5%.
`CS(=O)(=O)c1ccc([C@@H]2CCc3cc(O)ccc3[C@@H]2c2ccc(OCCN3CC(CF)C3)cc2)cc1` [Compound 115, (5S,6R)-5-(4-(2-(3-(fluoromethyl)azetidin-1-yl)ethoxy)phenyl)-6-(4-(methylsulfonyl)phenyl)-5,6,7,8-tetrahydronaphthalen-2-ol]: the “ER-alpha (WT) MCF7 HCS (S inf)” value is given as −75%. For the same compound, under setting [1], it took 39400 pM to reach a half-maximal effect (EC50).
Regarding `Oc1ccc2c(c1)CC[C@H](c1ccccc1)[C@@H]2c1ccc(NC2CN(CCCF)C2)cc1` [Compound 132, (5R,6S)-5-(4-((1-(3-fluoropropyl)azetidin-3-yl)amino)phenyl)-6-phenyl-5,6,7,8-tetrahydronaphthalen-2-ol], the “ER-alpha (WT) MCF7 HCS (S inf)” value is reported as −99.9%. The same compound came in with an EC50 under setting [1] of 29 pM.
For the compound `Oc1ccc2c(c1)CC[C@H](c1ccccc1)[C@@H]2c1ccc(OCCN2CC(CF)C2)nc1` [Compound 127, (5S,6S)-5-(6-(2-(3-(fluoromethyl)azetidin-1-yl)ethoxy)pyridin-3-yl)-6-phenyl-5,6,7,8-tetrahydronaphthalen-2-ol], the “ER-alpha (WT) MCF7 HCS (S inf)” value is reported as −96.5%. Further, the EC50 under setting [1] was 46.1 pM.
As for `Oc1ccc2c(c1)CC[C@@H](c1ccccc1)[C@H]2c1ccc(OCCN2CC(C(F)F)C2)cc1` [Compound 116, (5S,6R)-5-(4-(2-(3-(difluoromethyl)azetidin-1-yl)ethoxy)phenyl)-6-phenyl-5,6,7,8-tetrahydronaphthalen-2-ol], the “ER-alpha (WT) MCF7 HCS (EC50)” value under setting [1] was more than 0.10 µmol.
As for `Oc1ccc2c(c1)CC[C@H](c1ccccc1)[C@@H]2c1ccc(OCCN2CC(C(F)F)C2)cc1` [Compound 118, (5R,6S)-5-(4-(2-(3-(difluoromethyl)azetidin-1-yl)ethoxy)phenyl)-6-phenyl-5,6,7,8-tetrahydronaphthalen-2-ol], the “ER-alpha (WT) MCF7 HCS (S inf)” value is recorded as −93.6%. For the same compound, the EC50 under setting [1] is 184 pM.
Consider `C[C@H](CN1CC[C@@H](CF)C1)Oc1ccc([C@H]2c3ccc(O)cc3CC[C@H]2c2ccccc2)cc1` [Compound 126, (5S,6R)-5-(4-(((R)-1-((R)-3-(fluoromethyl)pyrrolidin-1-yl)propan-2-yl)oxy)phenyl)-6-phenyl-5,6,7,8-tetrahydronaphthalen-2-ol], for which the “ER-alpha (WT) MCF7 HCS (S inf)” value is given as −97.1%. Further, the EC50 under setting [1] stood at 675 pM.
On to `Oc1ccc2c(c1)CC[C@@H](C1CCC(F)(F)CC1)[C@H]2c1ccc(OCCN2CC(CF)C2)cc1` [Compound 108, (5S,6S)-6-(4,4-difluorocyclohexyl)-5-(4-(2-(3-(fluoromethyl)azetidin-1-yl)ethoxy)phenyl)-5,6,7,8-tetrahydronaphthalen-2-ol], for which the “ER-alpha (WT) MCF7 HCS (S inf)” value is −97%. The compound further gave an EC50 under setting [1] of 14600 pM.
On the same counts, the results for `Oc1ccc2c(c1)CC[C@@H](c1ccccc1)[C@H]2c1ccc(OCCN2CC(CCl)C2)cc1` [Compound 113, (5S,6R)-5-(4-(2-(3-(chloromethyl)azetidin-1-yl)ethoxy)phenyl)-6-phenyl-5,6,7,8-tetrahydronaphthalen-2-ol] are −93.6% and 177 pM.
